Laboratory results from patent US20260191968A1, “PROTAC DEGRADERS OF MLLT1 AND/OR MLLT3” (DARK BLUE THERAPEUTICS LTD, priority 2024, published 2026).
pIC50: −log10 of the molar value.

What was measured:
[1] = test system: MV4-11 cells; test: MV4-11 cellular proliferative assay, Assay Format B (CTG 2.0, 168 h); assay type: cell-based; conditions: Homo sapiens, 168 h (7 days), CTG 2.0, read-out: IC50 (MV4-11 cellular proliferative assay, Assay format B)
Protocol: MV4-11 cells at a confluency of ~50-80% was used for cell growth assay. 600 cells/well in a 384-well opaque cell culture plate (6007680; Perkin Elmer) were seeded in 40 μL of complete medium (IMDM+10% FBS+1X Penicillin-Streptomycin). Cells were incubated overnight at 37° C., 5% CO2. 10 mM DMSO stocks were prepared, cells were treated with 10 concentrations of test compounds starting from 1 uM or 100 nM, 3-fold dilution in 10 uL (5×concentration) of complete medium. Final DMSO concentration was 0.3%. Culture plates were centrifuged at 40×g, 30s. Cells were incubated with compounds for 168 h (7 days). After 7 days, 20 uL CTG 2.0 reagent (G9242; Promega) was added per well and luminescence reading was taken in Envision Xcite 2105 multimode plate reader. Data was analyzed in GraphPad Prism 10.0 and data was shown as % viability with respect to DMSO control and dose-response curves were generated using four parameter logistic regression. Assay quality was determined by z-factor calculation using positive and negative controls.

[2] = target: T1, MLLT1 (Homo sapiens, UniProt Q03111); test: MLLT1 degradation assay in MV4-11 cells (JESS chemiluminescent detection), three concentrations, 24 h; assay type: cell-based; conditions: with respect to DMSO control
T1 construct: host or cells: MV4-11
T1 sequence (Q03111 1-559): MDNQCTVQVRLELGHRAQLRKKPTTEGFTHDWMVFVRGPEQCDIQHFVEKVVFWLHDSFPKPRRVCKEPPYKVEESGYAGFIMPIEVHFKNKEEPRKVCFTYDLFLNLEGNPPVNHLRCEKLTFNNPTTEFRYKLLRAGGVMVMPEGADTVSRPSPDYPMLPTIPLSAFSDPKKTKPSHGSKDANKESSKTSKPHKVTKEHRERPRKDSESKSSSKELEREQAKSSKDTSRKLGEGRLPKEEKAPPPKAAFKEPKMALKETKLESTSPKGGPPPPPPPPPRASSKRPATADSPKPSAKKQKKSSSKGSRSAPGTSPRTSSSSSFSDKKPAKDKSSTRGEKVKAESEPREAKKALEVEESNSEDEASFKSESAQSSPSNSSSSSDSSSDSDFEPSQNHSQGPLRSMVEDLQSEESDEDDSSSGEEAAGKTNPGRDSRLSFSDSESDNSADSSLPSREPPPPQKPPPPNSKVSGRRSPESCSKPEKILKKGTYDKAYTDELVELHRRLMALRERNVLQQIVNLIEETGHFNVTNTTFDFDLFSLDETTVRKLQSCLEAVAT
Outline: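 Read-out is % MLLT1 degradation versus DMSO, from band peak areas on a JESS chemiluminescent system. Cells (MV4-11) were exposed for 24 h at 37° C to three compound levels, 10, 100 and 1000 nM, in 0.1% DMSO.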

| pIC50 [1] | MLLT1% Degradation @ 0.01 μM [2] | MLLT1% Degradation @ 0.1 μM [2] | MLLT1% Degradation @ 1 μM [2] | SMILES |
| --- | --- | --- | --- | --- |
| ≥ 7.00 | A (Category A: A ≥ 75% degradation) | A (Category A: A ≥ 75% degradation) | A (Category A: A ≥ 75% degradation) | CN1CCC[C@@H]1c1cc2cnc(NC(=O)c3ccc(CCCC4CCN(c5cccc6c5CN(C5CCC(=O)NC5=O)C6=O)CC4)cc3)cc2[nH]1 (mixture of isomers) [Example 76, 4-(3-(1-(2-(2,6-dioxopiperidin-3-yl)-1-oxoisoindolin-4-yl)piperidin-4-yl)propyl)-N-(2-((R)-1-methylpyrrolidin-2-yl)-1H-pyrrolo[3,2-c]pyridin-6-yl)benzamide] |
| ≥ 7.00 | A (Category A: A ≥ 75% degradation) | A (Category A: A ≥ 75% degradation) | A (Category A: A ≥ 75% degradation) | CN1CCC[C@@H]1c1cc2cnc(NC(=O)c3ccc(OCCC4CCN(c5cccc6c5CN(C5CCC(=O)NC5=O)C6=O)CC4)cc3)cc2[nH]1 (mixture of isomers) [Example 79, 4-(2-(1-(2-(2,6-dioxopiperidin-3-yl)-1-oxoisoindolin-4-yl)piperidin-4-yl)ethoxy)-N-(2-((R)-1-methylpyrrolidin-2-yl)-1H-pyrrolo[3,2-c]pyridin-6-yl)benzamide] |
| ≥ 7.00 | A (Category A: A ≥ 75% degradation) | A (Category A: A ≥ 75% degradation) | A (Category A: A ≥ 75% degradation) | CN1CCC[C@@H]1c1cc2cnc(NC(=O)c3ccc(OC4CCN(CC5CCN(c6cccc7c6CN(C6CCC(=O)NC6=O)C7=O)CC5)CC4)cc3)cc2[nH]1 (mixture of isomers) [Example 121, 4-((1-((1-(2-(2,6-dioxopiperidin-3-yl)-1-oxoisoindolin-4-yl)piperidin-4-yl)methyl)piperidin-4-yl)oxy)-N-(2-((R)-1-methylpyrrolidin-2-yl)-1H-pyrrolo[3,2-c]pyridin-6-yl)benzamide] |
| ≥ 7.00 | A (Category A: A ≥ 75% degradation) | A (Category A: A ≥ 75% degradation) | A (Category A: A ≥ 75% degradation) | C[C@@H]1CN(CC2CCN(c3cccc4c3CN(C3CCC(=O)NC3=O)C4=O)CC2)CCN1c1ccc(C(=O)Nc2cc3[nH]c([C@H]4CCCN4C)cc3cn2)cc1 (mixture of isomers) [Example 133, 4-((2R)-4-((1-(2-(2,6-dioxopiperidin-3-yl)-1-oxoisoindolin-4-yl)piperidin-4-yl)methyl)-2-methylpiperazin-1-yl)-N-(2-((R)-1-methylpyrrolidin-2-yl)-1H-pyrrolo[3,2-c]pyridin-6-yl)benzamide] |
| ≥ 7.00 | A (Category A: A ≥ 75% degradation) | A (Category A: A ≥ 75% degradation) | A (Category A: A ≥ 75% degradation) | CN1CCC[C@@H]1c1[nH]c2cc(NC(=O)c3ccc(OCCC4CCN(c5cccc6c5CN(C5CCC(=O)NC5=O)C6=O)CC4)cc3)ncc2c1Cl (mixture of isomers) [Example 160, N-(3-chloro-2-((R)-1-methylpyrrolidin-2-yl)-1H-pyrrolo[3,2-c]pyridin-6-yl)-4-(2-(1-(2-(2,6-dioxopiperidin-3-yl)-1-oxoisoindolin-4-yl)piperidin-4-yl)ethoxy)benzamide] |
| ≥ 7.00 | A (Category A: A ≥ 75% degradation) | A (Category A: A ≥ 75% degradation) | A (Category A: A ≥ 75% degradation) | CN1CCC[C@@H]1c1cc2cnc(NC(=O)c3ccc(OCCC4CCN(c5cccc6c5CN(C5CCC(=O)NC5=O)C6=O)CC4)cc3F)cc2[nH]1 (mixture of isomers) [Example 171, 4-(2-(1-(2-(2,6-dioxopiperidin-3-yl)-1-oxoisoindolin-4-yl)piperidin-4-yl)ethoxy)-2-fluoro-N-(2-((R)-1-methylpyrrolidin-2-yl)-1H-pyrrolo[3,2-c]pyridin-6-yl)benzamide] |
| ≥ 7.00 | A (Category A: A ≥ 75% degradation) | A (Category A: A ≥ 75% degradation) | A (Category A: A ≥ 75% degradation) | CN1CCC[C@@H]1c1cc2cnc(NC(=O)c3ccc(CCCC4CCN(c5cccc6c5CN(C5CCC(=O)NC5=O)C6=O)CC4)cc3F)cc2[nH]1 (mixture of isomers) [Example 174, 4-(3-(1-(2-(2,6-dioxopiperidin-3-yl)-1-oxoisoindolin-4-yl)piperidin-4-yl)propyl)-2-fluoro-N-(2-((R)-1-methylpyrrolidin-2-yl)-1H-pyrrolo[3,2-c]pyridin-6-yl)benzamide] |
| ≥ 7.00 | A (Category A: A ≥ 75% degradation) | A (Category A: A ≥ 75% degradation) | A (Category A: A ≥ 75% degradation) | CN1CCC[C@@H]1c1cc2cnc(NC(=O)c3ccc(CCCC#Cc4cccc5c4CN([C@H]4CCC(=O)NC4=O)C5=O)cc3)cc2[nH]1 (relative stereo) [Example 102, 4-(5-(2-((rel-S)-2,6-dioxopiperidin-3-yl)-1-oxoisoindolin-4-yl)pent-4-yn-1-yl)-N-(2-((R)-1-methylpyrrolidin-2-yl)-1H-pyrrolo[3,2-c]pyridin-6-yl)benzamide] |
| ≥ 7.00 | A (Category A: A ≥ 75% degradation) | A (Category A: A ≥ 75% degradation) | A (Category A: A ≥ 75% degradation) | CN1CCC[C@@H]1c1cc2cnc(NC(=O)c3ccc(CCCC#Cc4cccc5c4CN([C@@H]4CCC(=O)NC4=O)C5=O)cc3)cc2[nH]1 (relative stereo) [Example 103, 4-(5-(2-((rel-R)-2,6-dioxopiperidin-3-yl)-1-oxoisoindolin-4-yl)pent-4-yn-1-yl)-N-(2-((R)-1-methylpyrrolidin-2-yl)-1H-pyrrolo[3,2-c]pyridin-6-yl)benzamide] |

| SMILES | pIC50 [1] | MLLT1% Degradation @ 0.01 μM [2] | MLLT1% Degradation @ 0.1 μM [2] | MLLT1% Degradation @ 1 μM [2] |
| --- | --- | --- | --- | --- |
| CN1CCC[C@@H]1c1cc2cnc(NC(=O)c3ccc(N4CCN(CC5CCN(c6cccc7c6CN(C6CCC(=O)NC6=O)C7=O)CC5)CC4)cc3)cc2[nH]1 (mixture of isomers) [Example 116, 4-(4-((1-(2-(2,6-dioxopiperidin-3-yl)-1-oxoisoindolin-4-yl)piperidin-4-yl)methyl)piperazin-1-yl)-N-(2-((R)-1-methylpyrrolidin-2-yl)-1H-pyrrolo[3,2-c]pyridin-6-yl)benzamide] | ≥ 7.00 | B (Category B: 50% ≤ B < 75% degradation) | A (Category A: A ≥ 75% degradation) | A (Category A: A ≥ 75% degradation) |
| CN1CCC[C@@H]1c1cc2cnc(NC(=O)c3ccc(N4CCN(CC5CCN(c6cccc7c6CN([C@H]6CCC(=O)NC6=O)C7=O)CC5)CC4)cc3)cc2[nH]1 (relative stereo) [Example 117, 4-(4-((1-(2-((rel-S)-2,6-dioxopiperidin-3-yl)-1-oxoisoindolin-4-yl)piperidin-4-yl)methyl)piperazin-1-yl)-N-(2-((R)-1-methylpyrrolidin-2-yl)-1H-pyrrolo[3,2-c]pyridin-6-yl)benzamide] | ≥ 7.00 | B (Category B: 50% ≤ B < 75% degradation) | A (Category A: A ≥ 75% degradation) | B (Category B: 50% ≤ B < 75% degradation) |
| CN1CCC[C@@H]1c1cc2cnc(NC(=O)c3ccc(N4CCN(CC5CCN(c6cccc7c6CN([C@@H]6CCC(=O)NC6=O)C7=O)CC5)CC4)cc3)cc2[nH]1 (relative stereo) [Example 118, 4-(4-((1-(2-((rel-R)-2,6-dioxopiperidin-3-yl)-1-oxoisoindolin-4-yl)piperidin-4-yl)methyl)piperazin-1-yl)-N-(2-((R)-1-methylpyrrolidin-2-yl)-1H-pyrrolo[3,2-c]pyridin-6-yl)benzamide] | ≥ 7.00 | C (Category C: 25% ≤ C < 50% degradation) | B (Category B: 50% ≤ B < 75% degradation) | B (Category B: 50% ≤ B < 75% degradation) |
